Assays:
Assay type in all cases: cell-based, human
[1] = tested on: CPDs in genomic DNA of HAP1 cell lines; test: Dot blot for cyclobutane pyrimidine dimers; details: HAP1 WT and ΔXPA, 0.5 mM, 15 J/M^2 (FIG. 7C-D)
Method: A. Dose-response curve of WT and ΔXPA cells treated with or without 0.5 mM acetohexamide for the indicated times, followed by UV irradiation. Survival was assessed after 3 days, using CellTiter-Glo. […] Error bars indicate SEM (n=3). B. Clonogenic survival of WT and ΔXPA cells treated with 0.5 mM acetohexamide for 6 hours or left untreated, then exposed to illudin S for 10 days, as indicated. C. WT and ΔXPA cells treated with or without 0.5 mM acetohexamide for the indicated times, followed by 15 J/M^2 irradiation and analyzed by dot blot for the presence of CPDs in genomic DNA. DNA was counterstained with methylene blue (MB) as a loading control. D. Quantification of the intensities of C.
The amount of cyclobutane pyrimidine dimers (CPDs) in DNA was quantified using an immuno-dot blot assay with the CPD-specific monoclonal antibody TDM-2 (Cosmo Bio). Genomic DNA was extracted using QIAamp DNA mini kit (Qiagen), then the genomic DNA was denatured in TE buffer (10 mM Tris-CL and 1 mM EDTA, pH 7.5) by boiling for 5 minutes and subsequently 50 ng of genomic DNA was dot-blotted in triplicate onto a nitrocellulose membrane. The DNA was then fixed by baking the membrane for 2 hours at 80° C. […] Signals were detected using Amersham ECL (GE Healthcare Life Sciences DNA was counterstained with methylene blue as a loading control.

[2] = tested on: WT and ΔXPA cells; test: Survival after illudin S treatment; details: 0.5 mM acetohexamide for 6 hours, then illudin S (FIG. 2A, 7B)
Method: A. Dose-response curve of WT and ΔXPA cells treated with or without 0.5 mM acetohexamide for 6 hours, followed by illudin S treatment. Survival was assessed after 3 days using CellTiter-Glo. B. Colony formation of WT fibroblasts (BJ) and XPA-patient derived fibroblasts (XPA^Δ/Δ) treated with or without 0.5 mM acetohexamide for 6 hours, followed by UV irradiation (as indicated) and then kept in culture for 10 days. C. WT BJ and XPA^Δ/Δ fibroblastoid cells were treated with 0.5 mM acetohexamide for 6 hours, irradiated with 15 J/M^2 and then fixed and immunostained with an anti-cyclobutane pyrimidine dimer (CPD) antibody at the indicated times. Nuclear DNA was counterstained with DAPI. Scale bar, 10 μm. D. Scatter plot displaying the quantification of CPD intensities per nucleus of WT and XPA^Δ/Δ cells in the presence or absence of 0.5 mM acetohexamide, of more than 100 cells. Red lines within each column represent median intensities. A.u.=arbitrary unit.
A. Dose-response curve of WT and ΔXPA cells treated with or without 0.5 mM acetohexamide for the indicated times, followed by UV irradiation. Survival was assessed after 3 days, using CellTiter-Glo. […] WT and ΔXPA cells treated with or without 0.5 mM acetohexamide for the indicated times, followed by 15 J/M^2 irradiation and analyzed by dot blot for the presence of CPDs in genomic DNA. […] D. Quantification of the intensities of C. […]

[3] = tested on: XPA-deficient HAP1 cells (ΔXPA); test: High-throughput drug screen for agents that alleviate UV sensitivity of NER-deficient cells; details: drug at five times maximal plasma concentration for 24 hours, then UV; viability after 3 days
Text: An in-house drug library of around 300 compounds representing all structurally distinct Food and Drug Administration (FDA) approved compounds was used to allow for potential drug repurposing. First, an NER-deficient cell line was generated by making a frameshift mutation in XPA, one of the central components of NER that functions in both TC-NER and GG-NER, utilizing CRISPR-Cas9 in the human near haploid cell line HAP1 (denoted ΔXPA) (FIG. 5A). […] Next, ΔXPA and wildtype cells were exposed to the drug library (with each drug used at five times maximal plasma concentration) for 24 hours, followed by UV exposure (at a dose selected to kill ΔXPA cells but not wildtype cells) (FIGS. 1A and 5D). The compounds were scored based on their efficiency to improve cellular survival of ΔXPA cells, compared to wildtype cells (FIG. 1B). […]
Fifty nL of compound per well was transferred into 384-well plates (Corning 3712) from DMSO stock plates using acoustic transfer (Labcyte Echo 520). […] Three days later cell viability was determined using Cell Titer-Glo (Promega). […] For data analysis, the percentage of control was calculated and the signal of the DMSO irradiated sample was used to set values to 0% while the DMSO non-irradiated sample was used to set the values to 100%. […]

[4] = tested on: ΔXPA-MUTYH HAP1 cells; test: Colony formation of double knockout after UV irradiation; details: 0.5 mM for 6 hours, 15 J/M^2 UV, 10 days (FIG. 4C)
Method: A. WT HAP1 cells were treated with or without 0.5 mM acetohexamide for 6 hours, then released into compound-free media for the indicated time points and immunoblotted with an anti-MUTYH antibody. ACTIN was used as a loading control. B. WT HAP1 cells were either treated with 0.5 mM acetohexamide alone or with 10 μM of the proteasome inhibitor MG132 for 6 hours and analyzed by immunoblotting using an anti-MUTYH antibody. C. Left panel: colony formation of the WT, ΔXPA or ΔXPA-MUTYH HAP1 cells treated with or without 0.5 mM acetohexamide for 6 hours, followed by 15 J/M^2 UV irradiation and then kept in culture for 10 days. Right panel: Macroscopic colonies were stained with crystal violet and quantified. D. WT, ΔXPA or ΔXPA-MUTYH HAP1 cells were treated with 15 J/M^2 UV or left untreated, then kept in culture for the indicated recovery times and analyzed by dot blot for the presence of CPDs within genomic DNA. […] F. Survival of WT and ΔMULE HAP1 cells exposed to UV irradiation at different doses and assessed after 3 days, using CellTitre-Glo.
Cells were treated with UV at different doses with or without drug pre-treatment and then seeded into 6-well plates, at a density of 1,000 cells/well, in duplicates for 2 weeks until visible colonies were formed. […] Next, the staining solution was removed and the wells were washed, imaged and quantified using CellProfiler.

Compound: CC(=O)c1ccc(S(=O)(=O)NC(=O)NC2CCCCC2)cc1 [acetohexamide]
- clearance of CPDs, dot blot [1]: same observation was also made for HAP1 cell lines
- cellular survival following illudin S treatment [2]: could increase cellular survival following illudin S treatment
- correction of survival of ΔXPA cells compared to wildtype cells [3]: > 40%
- survival of double knockout ΔXPA-MUTYH upon UV treatment [4]: did not lead to a further increase in survival upon UV treatment

— patent US20200171056A1, “SULFONYLUREA COMPOUNDS IN THE TREATMENT OF DISEASE ASSOCIATED WITH UV-INDUCED DAMAGE” (CeMM - Forschungszentrum für Molekulare Medizin GmbH, priority 2017, published 2020)
